Experimental data as given in US8859574B2 (IRM LLC, priority 2008, dated 2014).

Molecular target: T1, IGF-1R Ba/F3 (Homo sapiens, UniProt P08069)
T1 construct: fused on or other part: TEL- (or BCR-) IGF-1R in Ba/F3: the kinase part holds the site
Assay: Ba/F3 Cell Viability Inhibition Assay (IGF-1R Ba/F3)
Assay type: cell-based, murine
Settings: Tel-TK transformed Ba/F3 cells, 48 hours, Britelite luminescence
Summary of the method: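 IL-3-independent murine Ba/F3 cells transformed with a TEL/BCR-fused IGF-1R kinase were seeded at 3750 cells/well and exposed to serially diluted compound for 48 h at 37 °C. Viability was read by Britelite luminescence. IC50 is the concentration giving 50% of DMSO-control viability, from a logistic fit.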

T1 sequence (P08069 999-1274 limits assumed): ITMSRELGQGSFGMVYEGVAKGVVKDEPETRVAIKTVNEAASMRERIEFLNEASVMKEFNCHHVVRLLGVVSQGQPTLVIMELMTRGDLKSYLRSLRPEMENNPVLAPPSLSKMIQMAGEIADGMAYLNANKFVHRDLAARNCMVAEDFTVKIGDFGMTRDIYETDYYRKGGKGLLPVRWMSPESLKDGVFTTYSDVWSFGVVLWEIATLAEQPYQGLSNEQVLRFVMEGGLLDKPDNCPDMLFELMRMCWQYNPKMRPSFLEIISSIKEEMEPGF

Row | SMILES | IC50 [nM]
1 | COc1cc(Nc2ncc(Cl)c(Nc3cc(C)[nH]n3)n2)c(C)cc1C1CCN(CC(N)=O)CC1 [Compound 262, 2-(4-(4-(5-chloro-4-(5-methyl-1H-pyrazol-3-ylamino)pyrimidin-2-ylamino)-2-methoxy-5-methylphenyl)piperidin-1-yl)acetamide] | 19
2 | Cc1cc(Nc2nc(Nc3cc(C)c(C4CCN(S(=O)(=O)CCCN5CCOCC5)CC4)cc3C)ncc2Cl)n[nH]1 [Compound 194, 5-Chloro-N^2-(2,5-dimethyl-4-(1-(3-morpholinopropylsulfonyl)piperidin-4-yl)phenyl)-N^4-(5-methyl-1H-pyrazol-3-yl)pyrimidine-2,4-diamine] | 13
3 | Cc1cc(Nc2nc(Nc3cc(C)c(C4CCN(S(=O)(=O)C5CC5)CC4)cc3F)ncc2Cl)n[nH]1 [Compound 64, 5-chloro-N2-(4-(1-(cyclopropylsulfonyl)piperidin-4-yl)-2-fluoro-5-methylphenyl)-N4-(5-methyl-1H-pyrazol-3-yl)pyrimidine-2,4-diamine] | 59
4 | Cc1cc(Nc2nc(Nc3cc(C)c(C4CCN([C@H](C)C(N)=O)CC4)cc3C)ncc2Cl)n[nH]1 [Compound 167, (R)-2-(4-(4-(5-chloro-4-(5-methyl-1H-pyrazol-3-ylamino)pyrimidin-2-ylamino)-2,5-dimethylphenyl)piperidin-1-yl)propanamide] | 6
5 | Cc1cc(Nc2nc(Nc3cc(C)c(C4CCN([C@H]5CC[C@H](O)CC5)CC4)cc3F)ncc2Cl)n[nH]1 [Compound 310, Trans-4-(4-(4-(5-chloro-4-(5-methyl-1H-pyrazol-3-ylamino)pyrimidin-2-ylamino)-5-fluoro-2-methylphenyl)piperidin-1-yl)cyclohexanol] | 27
6 | Cc1cc(Nc2nc(Nc3cc(C)c(C4CCN(C5CS(=O)(=O)C5)CC4)cc3F)ncc2Cl)n[nH]1 [Compound 148, 5-chloro-N^2-(2-fluoro-5-methyl-4-(1-(1,1-dioxido-3-thietanyl)piperidin-4-yl)phenyl)-N^4-(5-methyl-1H-pyrazol-3-yl)pyrimidine-2,4-diamine] | 18
7 | Cc1cc(Nc2nc(Nc3cc(Cl)c(C4CCN(C)CC4)cc3C)ncc2Cl)n[nH]1 [Compound 7, 5-chloro-N2-(5-chloro-2-methyl-4-(1-methylpiperidin-4-yl)phenyl)-N4-(5-methyl-1H-pyrazol-3-yl)pyrimidine-2,4-diamine] | 15
8 | CNCC(=O)N1CCC(c2cc(F)c(Nc3ncc(Cl)c(Nc4cc(C)[nH]n4)n3)cc2C)CC1 [Compound 80, 1-(4-(4-(5-chloro-4-(5-methyl-1H-pyrazol-3-ylamino)pyrimidin-2-ylamino)-5-fluoro-2-methylphenyl)piperidin-1-yl)-2-(methylamino)ethanone] | 103
9 | Cc1cc(Nc2nc(Nc3cc(C)c(C4CCN(C(=O)C5(O)CC5)CC4)cc3F)ncc2Cl)n[nH]1 [Compound 192, (4-(4-(5-chloro-4-(5-methyl-1H-pyrazol-3-ylamino)pyrimidin-2-ylamino)-5-fluoro-2-methylphenyl)piperidin-1-yl)(1-hydroxycyclopropyl)methanone] | 21
10 | Cc1cc(Nc2nc(Nc3cc(C)c(C4CCN(C(=O)CN5CCCC5)CC4)cc3F)ncc2Cl)n[nH]1 [Compound 99, 1-(4-(4-(5-chloro-4-(5-methyl-1H-pyrazol-3-ylamino)pyrimidin-2-ylamino)-5-fluoro-2-methylphenyl)piperidin-1-yl)-2-(pyrrolidin-1-yl)ethanone] | 38
11 | Cc1cc(Nc2nc(Nc3cc(C)c(C4CCN(CC#N)CC4)cc3F)ncc2Cl)n[nH]1 [Compound 199, 2-(4-(4-(5-chloro-4-(5-methyl-1H-pyrazol-3-ylamino)pyrimidin-2-ylamino)-5-fluoro-2-methylphenyl)piperidin-1-yl)acetonitrile] | 77
12 | Cc1cc(Nc2nc(Nc3cc(C)c(C4CCN(Cc5cnccn5)CC4)cc3C)ncc2Cl)n[nH]1 [Compound 318, 5-chloro-N2-(2,5-dimethyl-4-(1-(pyrazin-2-ylmethyl)piperidin-4-yl)phenyl)-N4-(5-methyl-1H-pyrazol-3-yl)pyrimidine-2,4-diamine] | 10
13 | Cc1cc(Nc2nc(Nc3cc(C)c(C4CCN(C(=O)C5CNC5)CC4)cc3F)ncc2Cl)n[nH]1 [Compound 131, Azetidin-3-yl(4-(4-(5-chloro-4-(5-methyl-1H-pyrazol-3-ylamino)pyrimidin-2-ylamino)-5-fluoro-2-methylphenyl)piperidin-1-yl)methanone] | 1250
14 | Cc1cc(Nc2nc(Nc3cc(C)c(C4CCNCC4)cc3F)ncc2C(F)(F)F)n[nH]1 [Compound 4, N2-(2-fluoro-5-methyl-4-(piperidin-4-yl)phenyl)-N4-(5-methyl-1H-pyrazol-3-yl)-5-(trifluoromethyl)pyrimidine-2,4-diamine] | 150
15 | Cc1cc(Nc2nc(Nc3cc(C)c(C4CCN(C)CC4)cc3OC(C)C)ncc2C)n[nH]1 [Compound 5, N2-(2-isopropoxy-5-methyl-4-(1-methylpiperidin-4-yl)phenyl)-5-methyl-N4-(5-methyl-1H-pyrazol-3-yl)pyrimidine-2,4-diamine] | 805
16 | Cc1cc(Nc2nc(Nc3cc(C)c(C4CCN(C(=O)C5CN(C)C5)CC4)cc3F)ncc2Cl)n[nH]1 [Compound 117, (4-(4-(5-chloro-4-(5-methyl-1H-pyrazol-3-ylamino)pyrimidin-2-ylamino)-5-fluoro-2-methylphenyl)piperidin-1-yl)(1-methylazetidin-3-yl)methanone] | 99
17 | Cc1cc(Nc2nc(Nc3cc(C4CCN(CCC(F)(F)F)CC4)c(F)cc3C)ncc2Cl)n[nH]1 [Compound 28, 5-chloro-N2-(4-fluoro-2-methyl-5-(1-(3,3,3-trifluoropropyl)piperidin-4-yl)phenyl)-N4-(5-methyl-1H-pyrazol-3-yl)pyrimidine-2,4-diamine] | 5460
18 | Cc1cc(Nc2nc(Nc3cc(C)c(C4CCN(CC5CC5(F)F)CC4)cc3F)ncc2Cl)n[nH]1 (centres unmarked) [Compound 235, 5-chloro-N-(4-(1-((2,2-difluorocyclopropyl)methyl)piperidin-4-yl)-2-fluoro-5-methylphenyl)-N^4-(5-methyl-1H-pyrazol-3-yl)pyrimidine-2,4-diamine] | 63
19 | Cc1cc(Nc2nc(Nc3cc(C)c(C4CCN(C(=O)[C@@H]5CCCN5)CC4)cc3F)ncc2Cl)n[nH]1 [Compound 116, (S)-(4-(4-(5-chloro-4-(5-methyl-1H-pyrazol-3-ylamino)pyrimidin-2-ylamino)-5-fluoro-2-methylphenyl)piperidin-1-yl)(pyrrolidin-2-yl)methanone] | 137
20 | CCc1cc(Nc2ncc(Cl)c(Nc3cc(C)[nH]n3)n2)c(C)cc1C1CCN(CC(N)=O)CC1 [Compound 261, 2-(4-(4-(5-chloro-4-(5-methyl-1H-pyrazol-3-ylamino)pyrimidin-2-ylamino)-2-ethyl-5-methylphenyl)piperidin-1-yl)acetamide] | 27
21 | COCCN1CCC(c2cc(C)c(Nc3ncc(Cl)c(Nc4cc(C)[nH]n4)n3)cc2C)CC1 [Compound 212, 5-chloro-N2-(4-(1-(2-methoxyethyl)piperidin-4-yl)-2,5-dimethylphenyl)-N4-(5-methyl-1H-pyrazol-3-yl)pyrimidine-2,4-diamine] | 13
22 | Cc1cc(Nc2nc(Nc3cc(C)c(C4CCN(C(=O)[C@H]5CCCN5C)CC4)cc3F)ncc2Cl)n[nH]1 [Compound 134, (R)-(4-(4-(5-chloro-4-(5-methyl-1H-pyrazol-3-ylamino)pyrimidin-2-ylamino)-5-fluoro-2-methylphenyl)piperidin-1-yl)(1-methylpyrrolidin-2-yl)methanone] | 21
23 | Cc1cc(Nc2nc(Nc3cc(C)c(C4CCN(CCC(F)(F)F)CC4)cc3C)ncc2Cl)n[nH]1 [Compound 25, 5-chloro-N2-(2,5-dimethyl-4-(1-(3,3,3-trifluoropropyl)piperidin-4-yl)phenyl)-N4-(5-methyl-1H-pyrazol-3-yl)pyrimidine-2,4-diamine] | 31
24 | Cc1cc(Nc2nc(Nc3cc(C)c(C4CCN(CC5(C#N)CC5)CC4)cc3C)ncc2Cl)n[nH]1 [Compound 198, 1-((4-(4-(5-chloro-4-(5-methyl-1H-pyrazol-3-ylamino)pyrimidin-2-ylamino)-2,5-dimethylphenyl)piperidin-1-yl)methyl)cyclopropanecarbonitrile] | 22
25 | CNC(=O)CN1CCCC(c2cc(C)c(Nc3ncc(Cl)c(Nc4cc(C)[nH]n4)n3)cc2C)C1 (centres unmarked) [Compound 44, 2-(3-(4-(5-chloro-4-(5-methyl-1H-pyrazol-3-ylamino)pyrimidin-2-ylamino)-2,5-dimethylphenyl)piperidin-1-yl)-N-methylacetamide] | 15
26 | Cc1cc(Nc2nc(Nc3cc(C4CCNCC4)c(F)cc3C)ncc2Cl)n[nH]1 [Compound 8, 5-chloro-N2-(4-fluoro-2-methyl-5-(piperidin-4-yl)phenyl)-N4-(5-methyl-1H-pyrazol-3-yl)pyrimidine-2,4-diamine] | 1930
27 | Cc1cc(Nc2nc(Nc3cc(C)c(C4CCN(CC(N)=O)CC4)cc3C)ncc2C(F)(F)F)n[nH]1 [Compound 202, 2-(4-(2,5-dimethyl-4-(4-(5-methyl-1H-pyrazol-3-ylamino)-5-(trifluoromethyl)pyrimidin-2-ylamino)phenyl)piperidin-1-yl)acetamide] | 20
28 | Cc1cc(Nc2nc(Nc3cc(C)c(C4CCN(C(=O)C5(N)CC5)CC4)cc3F)ncc2Cl)n[nH]1 [Compound 93, (1-aminocyclopropyl)(4-(4-(5-chloro-4-(5-methyl-1H-pyrazol-3-ylamino)pyrimidin-2-ylamino)-5-fluoro-2-methylphenyl)piperidin-1-yl)methanone] | 33
29 | Cc1cc(Nc2nc(Nc3cc(C)c(C4CCN(C5CCC6(CC5)OCCO6)CC4)cc3F)ncc2Cl)n[nH]1 [Compound 283, N2-(4-(1-(1,4-dioxaspiro[4.5]decan-8-yl)piperidin-4-yl)-2-fluoro-5-methylphenyl)-5-chloro-N4-(5-methyl-1H-pyrazol-3-yl)pyrimidine-2,4-diamine] | 16
